Data reported in patent publication US20030181426A1, “Compositions and methods for treating pain using cyclooxygenase-1 inhibitors” (priority 2002, published 2003).

Key:
[1] = Phase I safety trial of intrathecal ketorolac in healthy volunteers; assay type: in vivo, humans
PGE2 = PGE2 concentration in cerebrospinal fluid of volunteers; assay type: in vivo, humans; details: for Pre-injection PGE2: CSF before injection; for Post-injection PGE2: CSF 60 min after injection
[2] = tested on: tactile hypersensitivity after paw incision; assay: Brennan model: tactile hypersensitivity after paw incision, von Frey withdrawal threshold; assay type: in vivo, male Sprague-Dawley rats
tactile allodynia = assay: Partial sciatic nerve ligation (PSNL) tactile allodynia, i.t. COX inhibitors; assay type: in vivo, Sprague-Dawley rats
Source text: A Sprague-Dawley rats (Harlan Industries, Indianapolis, Ind., USA), weighing 200-250 g, were used in this study. All animal surgical procedures were in conformity with the Wake Forest University guidelines on the ethical use of animals and studies were approved by the Animal Care and Use Committee. Animals were implanted with intrathecal catheters according to the method described previously. (Yaksh TL, 1976). Briefly, under halothane anesthesia (2-4% in oxygen/air), animals were placed prone in a stereotaxic frame and a small incision was made at the back of the neck. A small puncture was made in the atlanto-occipital membrane of the cistema magna and a polyethylene catheter (PE-10, 7.5 cm) was inserted so that the caudal tip reached the lumbar enlargement of the spinal cord. The rostral end of the catheter was exteriorized at the top of the head and the wound was closed with sutures. Animals were allowed 4-5 days to recover from the surgery and those displaying signs of motor dysfunction (fore limb or hind limb paralysis) were excluded from the study. Rats were anesthetized with 2-4% halothane in oxygen-air. For partial […] nerve ligation (PSNL), the left sciatic nerve was exposed at the high thigh level and one-third to one-half of the nerve was ligated with silk suture (size 6) as previously described (Shir et al., 1991). Animals were maintained after surgery with ad libitum food and water on a 12-h light/dark cycle. All rats were allowed to recover for 4 weeks after PSNL. By then, tactile allodynia was well established in the ipsilateral hindpaw.

chronic pain = assay: Intrathecal ketorolac in patients with chronic pain receiving spinal morphine (VAS); assay type: in vivo, humans
Source text: This study focused on safety, but efficacy measures were obtained by having patients rate their pain using a visual analog scale (VAS) before, and at intervals after, intrathecal injection of ketorolac. Data are available from the first 6 patients in this open label study.

noxious heat = assay: Latency to paw withdrawal from noxious heat; assay type: in vivo, male Sprague-Dawley rats
Protocol: After Animal Care and Use Committee approval, adult male Sprague-Dawley rats (240-330 g; Harlan, Indianapolis, Ind.) were anesthetized with halothane. A catheter was inserted, as previously described, through a small nick in the cisterna magnum membrane into the intrathecal space and advanced 7.5 cm such that its tip lay in the lumbar intrathecal space. […] After catheter implantation, rats were housed individually with a 12 h/12 h light/dark cycle and an unlimited supply of water and food. Experiments occurred at least 6 days after surgery.

Compound: O=C(c1ccccc1)c1ccc2n1CCC2C(=O)O (stereo not shown) [ketorolac]
- headache ([1]; 0.5 mg i.t., one individual, 24 h after injection, resolved the following day): mild headache
- heart rate prior to injection, range ([1]; entire group): 52-86 bpm
- minimum heart rate at any time after injection, range ([1]; entire group): 45-69 bpm
- heart rate prior to injection ([1]; entire group, mean ± SE): 67±2.1 bpm
- minimum heart rate at any time after injection ([1]; entire group, mean ± SE): 57±1.7 bpm
- heart rate ([1]; for 1 hr following ketorolac, significant within each dose group except 2.0 mg): decreased
- side effects ([1]; i.t. 0.25, 0.5, 1, or 2 mg open label dose-escalation, early studies of 14 subjects): no side effects were observed
- blood pressure, oxyhemoglobin saturation, end-tidal CO2 ([1]; i.t. 0.25-2 mg): did not affect
- deviation of blood pressure, oxyhemoglobin saturation, end-tidal CO2 from pre-injection values ([1]; i.t. 0.25-2 mg): ≤ 10%
- side effects at long-term follow up ([1]; i.t. 0.25-2 mg): no side effects
- subjective neurologic symptoms ([1]; i.t. 0.25-2 mg): no subjective neurologic symptoms in any volunteer
- symptomatic bradycardia ([1]; i.t. 0.25-2 mg): In no case
- sedation, anxiety, gastrointestinal or genitourinary symptoms, or dizziness ([1]; i.t. 0.25-2 mg, at any time): No volunteer reported
- neurologic examination ([1]; i.t. 0.25-2 mg, twenty volunteers): no effect
- side effects ([1]; i.t., doses up to 1.0 mg): no side effects
- Pre-injection PGE2 (PGE2; 0.25 mg dose group): 4.7 ± 0.7 pg/mL
- Post-injection PGE2 (PGE2; 0.25 mg i.t.): 6.0 ± 0.9 pg/mL
- Pre-injection PGE2 (PGE2; 0.50 mg dose group): 5.6 ± 1.9 pg/mL
- Post-injection PGE2 (PGE2; 0.50 mg i.t.): 3.8 ± 0.6 pg/mL
- Pre-injection PGE2 (PGE2; 1.0 mg dose group): 4.1 ± 0.9 pg/mL
- Post-injection PGE2 (PGE2; 1.0 mg i.t.): 8.5 ± 1.7 pg/mL
- Pre-injection PGE2 (PGE2; 2.0 mg dose group): 4.9 ± 0.7 pg/mL
- Post-injection PGE2 (PGE2; 2.0 mg i.t.): 7.5 ± 1.7 pg/mL
- CSF PGE2 concentration 60 min after ketorolac injection (PGE2; entire study population): 6.1 ± 0.6 pg/mL
- CSF PGE2 concentration prior to ketorolac injection (PGE2; entire study population): 4.9 ± 0.5 pg/mL
- effect on CSF PGE2 concentrations (PGE2; entire study population, 60 min after injection): not affected
- withdrawal threshold (von Frey) after paw incision ([2]; i.t. 50 μg given on the first postoperative day, established tactile hypersensitivity, within 30 min): increased withdrawal threshold
- withdrawal threshold (von Frey) after paw incision ([2]; i.t. 50 μg, pretreatment 15 min before surgery, compared to saline control 2 hr later and on the next day): increased withdrawal threshold
- duration of reversal of withdrawal threshold (tactile allodynia; 4 weeks after PSNL): 6 days
- withdrawal threshold, ipsilateral hindpaw (tactile allodynia; 4 weeks after PSNL, two hours following injection): significantly reversed to pre-lesion baseline
- withdrawal threshold, ipsilateral hindpaw (tactile allodynia; eight days after injection): returned to the pre-injection level
- VAS pain (chronic pain; beginning 1 hour after injection and lasting throughout the remaining 3 hours of observation, n=6): significantly reduced
- adverse events (chronic pain; i.t. 0.5 mg (5 patients) or 1.0 mg (1 patient), patients on spinal morphine): no significant adverse events
- VAS pain after injection (chronic pain; n=6): 3
- VAS pain prior to injection (chronic pain; n=6): 5
- antinociception (latency to paw withdrawal from noxious heat) (noxious heat; addition of ketorolac to clonidine): increased antinociception
- antinociception (latency to paw withdrawal from noxious heat) (noxious heat; drug alone, rats with intrathecal catheter): did not
- withdrawal threshold to noxious heat (noxious heat; i.t. ketorolac, rats): lack of effect
- spinal neurotoxicity (i.t., rats): no evidence for spinal neurotoxicity
- systemic toxicity at large doses (rat, in vivo): gastrointestinal ulceration and bleeding
